Patent US20100130544A1, “USE OF PARASYM[…] ENHANCE AND […] CELL DIFFERENTIATION, RELATED METHODS AND COMPOSITIONS” (UNIVERSITA' DEGLI STUDI DI TORINO, priority 2006, published 2010)

How the values were obtained:
THP-1 cells (PSC-THP1) = assay: Phenotypic analysis (Western blotting, immunofluorescence) of PSC-THP1 stimulated towards hepatocytic type + parasympatholytic; assay type: cell-based, human; parameters: key to expression of CD34: −−−−− = absence of any fluorescence; + = 1-5 fluorescent cells per optical field; ++ = 6-10 fluorescent cells per optical field; +++ = 10-20 fluorescent cells per optical field; ++++ = 20-50 fluorescent cells per optical field; +++++ > 50 fluorescent cells per optical field; settings: PSC-THP1 Hepatocytic type + parasympath. (HGF medium + 0.2 μg/mL scopolamine)
Protocol: (§1) Furthermore, samples of the same cells, taken every seventh day of incubation, have been incubated for 5-8 minutes with 2% lidocaine (Sigma Aldrich, Milan, Italy) in PBS and the solution thus obtained harvested, as described in the bibliography.
(§2) Western blotting first makes use of denaturing electrophoresis (SDS-PAGE) in order to separate the various proteins according to molecular weight, by cancelling out the charges on the amino acids which might influence migration. The cell samples, suspended in lysis buffer (1% SDS, 30 mM Tris pH 6.8, 5% glycerol) to which protease inhibitors (Protease Inhibitor Cocktail, Calbiochem, San Diego, Calif., USA) have been added, have been incubated for 30 minutes at 4° C. The lysates thus obtained have been centrifuged at 12,000 rpm for 20 minutes at 4° C. and the supernatants collected; the protein concentrations of the samples have been measured using the Bio-Rad method (Benchmark Plus assay, Bio-Rad). Prior to electrophoresis, the samples have been boiled for 5 minutes in the presence of beta-mercaptoethanol and bromophenol blue. The samples have been subjected to electrophoresis on a 12% gel (SDS-PAGE) and then transferred onto a PVDF membrane (Perkin Elmer Inc.). The membranes have been saturated with […] at room temperature and subsequently incubated overnight, at 4° C., with the following primary antibodies diluted 1:500 in PBS with 5% skimmed milk powder: anti-CD 34 (Santa Cruz Biotechnology, CA, USA), anti-CD 14 (Santa Cruz Biotechnology, CA, USA), anti-CD 45 (Santa Cruz Biotechnology, CA, USA), anti-CD 71 (Santa Cruz Biotechnology, CA, USA), anti-CD 90 (Santa Cruz Biotechnology, CA, USA), anti-CD 29 (Santa Cruz Biotechnology, CA, USA), anti-CD 105 (Santa Cruz Biotechnology, CA, USA), anti CD 117/c-KIT (Santa Cruz Biotechnology, CA, USA), anti c-MET (Santa Cruz Biotechnology, CA, USA), anti cytokeratin 7 (Santa Cruz Biotechnology, CA, USA), anti cytokeratin 8 (Santa Cruz Biotechnology, CA, USA), anti cytokeratin 18 (Santa Cruz Biotechnology, CA, USA), anti cytokeratin 19 (Santa Cruz Biotechnology, CA, USA), anti cytokeratin 7/17 (Santa Cruz Biotechnology, CA, USA), anti albumin (Rockland Immunochemicals, PA, USA), anti alpha-fetoprotein (Monosan Europa, Netherlands). After five washes, the membranes have been incubated with the corresponding secondary antibodies (1:1000) conjugated to horseradish peroxidase (HRP, SantaCruz Biotechnologies Inc., Santa Cruz, Calif., USA) for 1 hour at room temperature.
(§3) Cells in suspension have been incubated with […] MitoTracker Red for 10 minutes at 37° C. […] After three washes in PBS, the cells have been resuspended in a solution of PBS and 0.1% Triton for 1 hour at 4° C. After three washes in PBS, the cells have been seeded onto slide covers and the liquid allowed to evaporate-off in air. The cells have been blocked with 20% normal goat serum for one hour, then incubated for 30 minutes with the following fluorescein isothiocyanate (FITC) conjugated anti-human monoclonal antibodies: anti-CD 34 (Santa Cruz Biotechnology, CA, USA), anti-CD 14 (Santa Cruz Biotechnology, CA, USA), anti-CD 45 (Santa Cruz Biotechnology, CA, USA), anti-CD 71 (Santa Cruz Biotechnology, CA, USA), anti-CD 90 (Santa Cruz Biotechnology, CA, USA), anti-CD 29 (Santa Cruz Biotechnology, CA, USA), anti-CD 105 (Santa Cruz Biotechnology, CA, USA), anti CD 117/c-KIT (Santa Cruz Biotechnology, CA, USA), anti c-KIT (Santa Cruz Biotechnology, CA, USA), anti c-MET (Santa Cruz Biotechnology, CA, USA), anti cytokeratin 7 (Santa Cruz Biotechnology, CA, USA), anti cytokeratin 8 (Santa Cruz Biotechnology, CA, USA), anti cytokeratin 18 (Santa Cruz Biotechnology, CA, USA), anti cytokeratin 19 (Santa Cruz Biotechnology, CA, USA), anti cytokeratin 7/17 (Santa Cruz Biotechnology, CA, USA), anti albumin (Rockland Immunochemicals, PA, USA), anti alpha-fetoprotein (Monosan Europa, Netherlands). […]

Synovial cells (SynCs) = assay: Phenotypic analysis (Western blotting, immunofluorescence) of synovial cells stimulated towards hepatocytic type + parasympatholytic; assay type: cell-based, human; settings: Synovial cells Hepatocytic type + parasympath. (HGF medium + 0.2 μg/mL scopolamine)
Protocol: Synovial cells (SynCs) have been obtained from patients during exeresis and curettage of the synovial membrane inside the femoral-tibial joint cavity. Fresh synovial tissue sections have been disaggregated in collagenase (10 μg per mL of medium, Sigma) for two hours at 37° C. The pellet, washed twice in DMEM-LG (Gibco; Grand Island, N.Y., USA), free of any supplements, by centrifugation at 160 g for 10 minutes and then resuspended in complete low-glucose Dulbecco's modified Eagle's medium ([DMEM-LG] GIBCO; Grand Island, N.Y., USA) supplemented with 10% foetal bovine serum ([FBS] Sigma), 10 U/mL penicillin G, and 40 μg/mL gentamycin, is finally seeded into 75 cm^2 flasks and incubated in 5% CO2 at a temperature of 37° C. After 24 hours, the medium, along with any cells still in suspension, has been aspirated off and fresh medium (DMEM-LG, Gibco; Grand Island, N.Y., USA, supplemented with 10% FBS, Sigma, 10 U/mL penicillin G, and 40 μg/mL gentamycin) has been added over the adhered cells. The cells have been grown in 75 cm^2 flasks in an incubator with 5% CO2 at a temperature of 37° C. When the cells reach 80% confluence, they are detached using trypsin-EDTA (5 minutes incubation at 37° C. followed by the addition of 5 mL of pure FBS, and the detached cells in suspension are harvested), washed twice by centrifugation at 160 g for 7 minutes at 37° C. in DMEM-LG medium (Gibco; Grand Island, N.Y., USA) free of any supplements. The cells in the pellets thus obtained are resuspended at a concentration of 1×10^6 in fresh DMEM-LG medium (Gibco; Grand Island, N.Y., USA) supplemented with 10% foetal bovine serum ([FBS] Sigma), 10 U/mL penicillin G, and 40 μg/mL gentamycin. The cells have been reseeded after 1:4 dilution (final concentration 2.5×10^4). In this study, cells after the second passage in continuous culture have been used.
As described above in detail, every seventh day of incubation samples of all confluent MSC and SynC cells have been subjected to immunofluorescence testing of samples adhered onto sell culture slides. […]
Western blotting first makes use of denaturing electrophoresis (SDS-PAGE) in order to separate the various proteins according to molecular weight, by cancelling out the charges on the amino acids which might influence migration. […] The lysates thus obtained have been centrifuged at 12,000 rpm for 20 minutes at 4° C. and the supernatants collected; the protein concentrations of the samples have been measured using the Bio-Rad method (Benchmark Plus assay, Bio-Rad). […]

[1] = tested on: peripheral blood monocytes; assay: Phenotypic analysis (Western blotting, immunofluorescence) of monocytes stimulated towards hepatocytic type + parasympatholytic; assay type: cell-based, human; parameters: key to expression of CD34: −−−−− = absence of any fluorescence; + = 1-5 fluorescent cells per optical field; ++ = 6-10 fluorescent cells per optical field; +++ = 10-20 fluorescent cells per optical field; ++++ = 20-50 fluorescent cells per optical field; +++++ > 50 fluorescent cells per optical field; settings: monocytes Hepatocytic type + parasympath. (HGF medium + 0.2 μg/mL scopolamine)
Protocol: as §1, §2, §3

[2] = tested on: Human mesenchymal pluripotent stem cells (MSCs); assay: Phenotypic analysis (Western blotting, immunofluorescence) of mesenchymal cells stimulated towards hepatocytic type + parasympatholytic; assay type: cell-based; settings: Mesenchymal cells Hepatocytic type + parasympath. (HGF medium + 0.2 μg/mL scopolamine)
Description: Human mesenchymal pluripotent stem cells (MSCs, mesenchymal Stem Cells) have been extracted from samples of bone marrow (BM) taken from the femoral head (spongy tissue and bone marrow) during complete hip-replacement surgery. The nucleated cells have been separated by means of a density gradient (Ficoll-Paque, Amersham) and resuspended in low-glucose Dulbecco's modified Eagle's medium (DMEM-LG, Gibco, Grand Island, N.Y., USA) supplemented with 10% foetal bovine serum (FBS, Sigma), 10 U/mL penicillin G, and 40 μg/mL gentamycin. After 24 hours in culture, the medium, along with any cells in suspension, has been removed by aspiration and fresh medium added onto the adhered cells. The cells have been grown in 75 cm^2 flasks in an incubator with 5% CO2 at a temperature of 37° C. When the cells reach 80% confluence, they are detached using trypsin-EDTA (5 minutes incubation at 37° C. followed by the addition of 5 mL of pure FBS, and the detached cells in suspension are harvested), washed twice by centrifugation at 160 g for 7 minutes at 37° C. in DMEM-LG medium (Gibco; Grand Island, N.Y., USA) free of any supplements. The cells in the pellets thus obtained are resuspended at a concentration of 1×10^6 in fresh DMEM-LG medium (Gibco; Grand Island, N.Y., USA) supplemented with 10% foetal bovine serum (FBS, Sigma), 10 U/mL penicillin G, and 40 μg/mL gentamycin. The cells are reseeded after 1:4 dilution (final concentration 2.5×10^4). In this study, cells after the third passage in continuous culture have been used.
As described above in detail, every seventh day of incubation samples of all confluent MSC and SynC cells have been subjected to immunofluorescence testing of samples adhered onto sell culture slides.
Furthermore, every seventh day of incubation, samples of the same cells have been detached using trypsin-EDTA (5 minutes at a temperature of 37° C. followed by the addition of 5 mL of pure FBS and the detached cells in suspension harvested) and washed twice by centrifugation at 160 g for 7 minutes at 37° C. in DMEM-LG (Gibco; Grand Island, N.Y., USA) without any supplements.
Western blotting first makes use of denaturing electrophoresis (SDS-PAGE) in order to separate the various proteins according to molecular weight, by cancelling out the charges on the amino acids which might influence migration. The cell samples, suspended in lysis buffer (1% SDS, 30 mM Tris pH 6.8, 5% glycerol) to which protease inhibitors (Protease Inhibitor Cocktail, Calbiochem, San Diego, Calif., USA) have been added, have been incubated for 30 minutes at 4° C. The lysates thus obtained have been centrifuged at 12,000 rpm for 20 minutes at 4° C. and the supernatants collected; the protein concentrations of the samples have been measured using the Bio-Rad method (Benchmark Plus assay, Bio-Rad). Prior to electrophoresis, the samples have been boiled for 5 minutes in the presence of beta-mercaptoethanol and bromophenol blue. The samples have been subjected to electrophoresis on a 12% gel (SDS-PAGE) and then transferred onto a PVDF membrane (Perkin Elmer Inc.). […]

## CN1[C@@H]2C[C@@H](OC(=O)[C@H](CO)c3ccccc3)C[C@H]1[C@@H]1O[C@@H]12 [scopolamine, [7(S)-(1α,2β,4β,5α,7β)]-α-(hydroxymethyl)acid benzenacetic-9-methyl-3-oxa-9-azatricyclo[3.3.1.02,4]non-7-yl-ester]
THP-1 cells (PSC-THP1)
  expression of CD14: + (+ = 1-5 fluorescent cells per optical field)
  expression of CD34: −−−−−
  expression of Cytokeratin 7: +++++ (+++++ > 50 fluorescent cells per optical field)
  expression of Cytokeratin 8: ++++ (++++ = 20-50 fluorescent cells per optical field)
  expression of Cytokeratin 18: +++ (+++ = 10-20 fluorescent cells per optical field)
  expression of Cytokeratin 19: +++++ (+++++ > 50 fluorescent cells per optical field)
  expression of Cytokeratins 7/17: ++++ (++++ = 20-50 fluorescent cells per optical field)
  expression of Human albumin: +++++ (+++++ > 50 fluorescent cells per optical field)
  expression of alpha-fetoprotein: ++ (++ = 6-10 fluorescent cells per optical field)
  expression of c-KIT: + (+ = 1-5 fluorescent cells per optical field)
  expression of c-Met: ++ (++ = 6-10 fluorescent cells per optical field)
Synovial cells (SynCs)
  expression of CD71: ++ (++ = 6-10 fluorescent cells per optical field)
  expression of Human albumin: +++ (+++ = 10-20 fluorescent cells per optical field)
  expression of alpha-fetoprotein: + (+ = 1-5 fluorescent cells per optical field)
  expression of c-KIT: + (+ = 1-5 fluorescent cells per optical field)
[1]
  expression of CD14: + (+ = 1-5 fluorescent cells per optical field)
  expression of CD34: −−−−−
  expression of Cytokeratin 7: +++++ (+++++ > 50 fluorescent cells per optical field)
  expression of Cytokeratin 8: ++++ (++++ = 20-50 fluorescent cells per optical field)
  expression of Cytokeratin 18: +++ (+++ = 10-20 fluorescent cells per optical field)
  expression of Cytokeratin 19: +++++ (+++++ > 50 fluorescent cells per optical field)
  expression of Cytokeratins 7/17: ++++ (++++ = 20-50 fluorescent cells per optical field)
  expression of Human albumin: +++++ (+++++ > 50 fluorescent cells per optical field)
  expression of alpha-fetoprotein: ++ (++ = 6-10 fluorescent cells per optical field)
  expression of c-KIT: + (+ = 1-5 fluorescent cells per optical field)
  expression of c-Met: ++ (++ = 6-10 fluorescent cells per optical field)
[2]
  expression of CD29: + (+ = 1-5 fluorescent cells per optical field)
  expression of CD71: ++ (++ = 6-10 fluorescent cells per optical field)
  expression of CD90: + (+ = 1-5 fluorescent cells per optical field)
  expression of CD105: + (+ = 1-5 fluorescent cells per optical field)
  expression of Human albumin: ++ (++ = 6-10 fluorescent cells per optical field)
  expression of alpha-fetoprotein: + (+ = 1-5 fluorescent cells per optical field)
  expression of c-KIT: + (+ = 1-5 fluorescent cells per optical field)
